Reference: PubChem BioAssay (NCI)
Several values for one entry are separate records, joined by “and”; a condition that tells them apart may be missing. Identical values can stand only once.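 Here, GI50 denotes the concentration required for 50% inhibition of growth. At the TGI there is no net growth.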

Legend:
Experiment in all cases: inhibition of tumour cell growth, NCI panel, 384-well format
HS 578T breast = tested on: HS 578T breast
NCI-H322M lung = tested on: NCI-H322M lung
NCI-H522 lung = tested on: NCI-H522 lung
HL-60(TB) leukemia = tested on: HL-60(TB) leukemia
NCI/ADR-RES ovarian = tested on: NCI/ADR-RES ovarian
HCT-15 colon = tested on: HCT-15 colon
MDA-MB-435 melanoma = tested on: MDA-MB-435 melanoma
A498 renal = tested on: A498 renal
U251 glioblastoma = tested on: U251 glioblastoma
T-47D breast = tested on: T-47D breast
RXF 393 renal = tested on: RXF 393 renal
SK-MEL-5 melanoma = tested on: SK-MEL-5 melanoma
SNB-75 CNS = tested on: SNB-75 CNS
SK-MEL-2 melanoma = tested on: SK-MEL-2 melanoma
NCI-H226 lung = tested on: NCI-H226 lung
SF-539 CNS = tested on: SF-539 CNS
SN12C renal = tested on: SN12C renal
BT-549 breast = tested on: BT-549 breast
HCC-2998 colon = tested on: HCC-2998 colon
LOX IMVI melanoma = tested on: LOX IMVI melanoma
K-562 leukemia = tested on: K-562 leukemia
HOP-92 NSCLC = tested on: HOP-92 NSCLC
MDA-MB-231 breast = tested on: MDA-MB-231 breast
PC-3 prostate = tested on: PC-3 prostate
NCI-H460 NSCLC = tested on: NCI-H460 NSCLC
MOLT-4 leukemia = tested on: MOLT-4 leukemia
A549 NSCLC = tested on: A549 NSCLC
SK-OV-3 ovarian = tested on: SK-OV-3 ovarian
DU-145 prostate = tested on: DU-145 prostate
OVCAR-4 ovarian = tested on: OVCAR-4 ovarian
RPMI-8226 leukemia = tested on: RPMI-8226 leukemia
ACHN renal = tested on: ACHN renal
UACC-257 melanoma = tested on: UACC-257 melanoma
SK-MEL-28 melanoma = tested on: SK-MEL-28 melanoma
SNB-19 CNS = tested on: SNB-19 CNS
MALME-3M melanoma = tested on: MALME-3M melanoma
SF-268 CNS = tested on: SF-268 CNS
KM12 colon = tested on: KM12 colon
HT29 colon = tested on: HT29 colon
MCF7 breast = tested on: MCF7 breast
NCI-H23 lung = tested on: NCI-H23 lung
OVCAR-5 ovarian = tested on: OVCAR-5 ovarian
OVCAR-8 ovarian = tested on: OVCAR-8 ovarian
EKVX NSCLC = tested on: EKVX NSCLC
HOP-62 NSCLC = tested on: HOP-62 NSCLC
SR leukemia = tested on: SR leukemia
TK-10 renal = tested on: TK-10 renal
COLO 205 colon = tested on: COLO 205 colon
SW-620 colon = tested on: SW-620 colon
CCRF-CEM leukemia = tested on: CCRF-CEM leukemia
CAKI-1 renal = tested on: CAKI-1 renal
OVCAR-3 ovarian = tested on: OVCAR-3 ovarian
M14 melanoma = tested on: M14 melanoma
HCT-116 colon = tested on: HCT-116 colon
MDA-MB-468 breast = tested on: MDA-MB-468 breast
UACC-62 melanoma = tested on: UACC-62 melanoma
786-0 renal = tested on: 786-0 renal
SF-295 CNS = tested on: SF-295 CNS
IGROV1 ovarian = tested on: IGROV1 ovarian
UO-31 renal = tested on: UO-31 renal

Oc1cccc(-c2nc(N3CCOCC3)c3oc4ncccc4c3n2)c1
GI50 (HS 578T breast): 61.9 nM and 86.1 nM | TGI (HS 578T breast): 288 nM and 617 nM | GI50 (NCI-H322M lung): 229 nM and 106 nM | TGI (NCI-H322M lung): 2030 nM and 642 nM | GI50 (NCI-H522 lung): 81.6 nM and 55.9 nM | TGI (NCI-H522 lung): 524 nM and 501 nM | GI50 (HL-60(TB) leukemia): 62.2 nM and 20.5 nM | TGI (HL-60(TB) leukemia): 978 nM and 217 nM | GI50 (NCI/ADR-RES ovarian): 240 nM and 151 nM | TGI (NCI/ADR-RES ovarian): > 100000 nM and 18000 nM | GI50 (HCT-15 colon): 128 nM and 104 nM | TGI (HCT-15 colon): > 100000 nM and 38500 nM | GI50 (MDA-MB-435 melanoma): 161 nM and 162 nM | TGI (MDA-MB-435 melanoma): 823 nM and 767 nM | GI50 (A498 renal): 2050 nM and 598 nM | TGI (A498 renal): 4690 nM and 2870 nM | GI50 (U251 glioblastoma): 670 nM and 390 nM | TGI (U251 glioblastoma): > 100000 nM and 19600 nM | GI50 (T-47D breast): 150 nM and 215 nM | GI50 (RXF 393 renal): 95.7 nM and 207 nM | TGI (RXF 393 renal): 337 nM and 2860 nM | GI50 (SK-MEL-5 melanoma): 103 nM and 77.6 nM | TGI (SK-MEL-5 melanoma): 498 nM and 279 nM | GI50 (SNB-75 CNS): 33.4 nM and 53.7 nM | GI50 (SK-MEL-2 melanoma): 808 nM | TGI (SK-MEL-2 melanoma): 4720 nM | GI50 (NCI-H226 lung): 3470 nM and 2290 nM | TGI (NCI-H226 lung): 22400 nM and 5680 nM | GI50 (SF-539 CNS): 114 nM and 143 nM | TGI (SF-539 CNS): 1590 nM and 11400 nM | GI50 (SN12C renal): 121 nM and 43.3 nM | GI50 (BT-549 breast): 27.9 nM and 125 nM | TGI (BT-549 breast): 347 nM and 493 nM | GI50 (HCC-2998 colon): 147 nM and 367 nM | TGI (HCC-2998 colon): 4250 nM and 8570 nM | GI50 (LOX IMVI melanoma): 318 nM and 207 nM | TGI (LOX IMVI melanoma): 1570 nM and 1060 nM | GI50 (K-562 leukemia): 327 nM | TGI (K-562 leukemia): > 100000 nM | GI50 (HOP-92 NSCLC): 50.6 nM and 111 nM | GI50 (MDA-MB-231 breast): 289 nM and 500 nM | TGI (MDA-MB-231 breast): 47600 nM and > 100000 nM | GI50 (PC-3 prostate): 40.8 nM and 39.3 nM | TGI (PC-3 prostate): 1730 nM and 299 nM | GI50 (NCI-H460 NSCLC): 155 nM and 44.1 nM | GI50 (MOLT-4 leukemia): 23 nM and 39.1 nM | TGI (MOLT-4 leukemia): 230 nM and 195 nM | GI50 (A549 NSCLC): 251 nM and 353 nM | TGI (A549 NSCLC): 1680 nM and 15400 nM | GI50 (SK-OV-3 ovarian): 81.1 nM and 120 nM | GI50 (DU-145 prostate): 154 nM and 112 nM | GI50 (OVCAR-4 ovarian): 350 nM and 87.4 nM | TGI (OVCAR-4 ovarian): 3690 nM and 613 nM | GI50 (RPMI-8226 leukemia): 116 nM and 44.9 nM | TGI (RPMI-8226 leukemia): 419 nM and 184 nM | GI50 (ACHN renal): 70.7 nM and 77.9 nM | TGI (ACHN renal): 2440 nM and 563 nM | GI50 (UACC-257 melanoma): 535 nM and 350 nM | TGI (UACC-257 melanoma): 5390 nM and 3810 nM | GI50 (SK-MEL-28 melanoma): 96.3 nM and 123 nM | GI50 (SNB-19 CNS): 1260 nM and 1380 nM | TGI (SNB-19 CNS): > 100000 nM and 24300 nM | GI50 (MALME-3M melanoma): 40.3 nM and 83.5 nM | GI50 (SF-268 CNS): 239 nM and 394 nM | TGI (SF-268 CNS): 10100 nM and 17900 nM | GI50 (KM12 colon): 312 nM and 305 nM | TGI (KM12 colon): > 100000 nM | GI50 (HT29 colon): 3280 nM and 3420 nM | TGI (HT29 colon): > 100000 nM | GI50 (MCF7 breast): 208 nM and 99 nM | TGI (MCF7 breast): 23300 nM and 19500 nM | GI50 (NCI-H23 lung): 306 nM and 324 nM | TGI (NCI-H23 lung): 16100 nM and 17700 nM | GI50 (OVCAR-5 ovarian): 3540 nM and 2560 nM | GI50 (OVCAR-8 ovarian): 197 nM | TGI (OVCAR-8 ovarian): > 100000 nM | GI50 (EKVX NSCLC): 111 nM and 135 nM | TGI (EKVX NSCLC): 468 nM and 504 nM | GI50 (HOP-62 NSCLC): 429 nM and 231 nM | TGI (HOP-62 NSCLC): 3820 nM and 2810 nM | GI50 (SR leukemia): 207 nM and 61.2 nM | TGI (SR leukemia): 890 nM and 205 nM | GI50 (TK-10 renal): 331 nM and 167 nM | TGI (TK-10 renal): 1920 nM and 695 nM | GI50 (COLO 205 colon): 4480 nM and 5550 nM | TGI (COLO 205 colon): 33600 nM and 27200 nM | GI50 (SW-620 colon): 561 nM | TGI (SW-620 colon): > 100000 nM | GI50 (CCRF-CEM leukemia): 202 nM | TGI (CCRF-CEM leukemia): 2730 nM | GI50 (CAKI-1 renal): 395 nM and 255 nM | TGI (CAKI-1 renal): 5220 nM and 12300 nM | GI50 (OVCAR-3 ovarian): 54 nM and 118 nM | TGI (OVCAR-3 ovarian): 398 nM and 408 nM | GI50 (M14 melanoma): 260 nM and 155 nM | GI50 (HCT-116 colon): 982 nM and 466 nM | TGI (HCT-116 colon): > 100000 nM | GI50 (MDA-MB-468 breast): 289 nM and 291 nM | TGI (MDA-MB-468 breast): 1140 nM and 1240 nM | GI50 (UACC-62 melanoma): 305 nM and 400 nM | TGI (UACC-62 melanoma): 1460 nM and 2300 nM | GI50 ([…]-0 renal): 297 nM | TGI (786-0 renal): 1480 nM | GI50 (SF-295 CNS): 1290 nM and 2370 nM | TGI (SF-295 CNS): 4020 nM and 8530 nM | GI50 (IGROV1 ovarian): 115 nM and 155 nM | TGI (IGROV1 ovarian): 393 nM and 380 nM | GI50 (UO-31 renal): 60.9 nM | TGI (UO-31 renal): 295 nM
